Like-named read-outs stand apart in the source and are kept apart here.
Columns and labels:
SH SY5Y cells = experiment: Cell viability assay for amyloid toxicity using MTT reduction; format: cell-based; conditions: 10 μM Aβ(1-42), 24 h incubation, read-out: IC50, protecting SH SY5Y cells from a toxic insult of Aβ(1-42) (MTT reduction as measure of cell viability)
Description: Aβ(1-42) was prepared for amyloid aggregation and toxicity assays by dissolving Aβ(1-42) HCl salt in hexafluoroisopropanol (HFIP), with brief sonication and vortexing. This solution of the Aβ(1-42) peptide in HIT was stored at 4° C.@2 mM. When required, an aliquot of this stock solution was freeze-dried and dissolved in DMSO to 200 times the required final assay concentration (e.g. 2 mM for a final assay concentration of 10 μM).
A 20 mM stock solution of each test compound was prepared in DMSO, and aliquots of these solutions were used to prepare further stock solutions of each test compound in DMSO, ranging in concentration from 3 μM up to 10 mM. These stock solutions were prepared for use as and when required and stored at −20° C. (maximum of 3 freeze-thaw cycles). The 20 mM parent stock solutions were stored frozen at −20° C.
The activity of compounds in protecting SH SY5Y cells from a toxic insult of 10 μM Aβ(1-42) was assessed by using inhibition of MTT reduction as a measure of cell viability. An aliquot (3 μl) of test compound [various concentrations] in DMSO is added to 294 μl of Opti-Mem (containing 2% FBS, 1% Pen/Strep, 1% L-Gln) {daughter plate}. The well is mixed thoroughly. Then an aliquot (3 μl) of Aβ(1-42) [2 mM] is added to the daughter plate wells and again mixed thoroughly. 50 μl is then aspirated and dispensed into wells containing 50 μl media+SH SY5Ycells (cells are also plated in Opti-Mein, at ˜30,000 cells/well/50 μl). Final concentrations of compound on cells range from [50 μM] to [˜15 nM] with a final concentration of Aβ(1-42) of [10 μM].
Cell plates are incubated for 24 h and then the MTT assay (Shearman, 1999). is performed. […] The plate was shaken and the absorbance was recorded at both 570 nm and 650 nm. ΔA values were calculated by subtracting absorbance at 650 nm from absorbance at 570 nm, to reduce non-specific background absorbance. ΔA values from equivalent experiments were averaged and % cell viability was determined as follows: […]

Aβ(1-42) = target: T1, Aβ(1-42) (Homo sapiens, UniProt P05067); experiment: Thioflavin T fluorimetric assay of Aβ(1-42) aggregation; format: biochemical; conditions: 10 μM Aβ(1-42); read-out: IC50, inhibiting Aβ(1-42) aggregation (thioflavin-T fluorimetric assay)
T1 construct: dissolving Aβ(1-42) HCl salt in hexafluoroisopropanol (HFIP)
Description: Aβ(1-42) was prepared for amyloid aggregation and toxicity assays by dissolving Aβ(1-42) HCl salt in hexafluoroisopropanol (HFIP), with brief sonication and vortexing. This solution of the Aβ(1-42) peptide in HIT was stored at 4° C.@2 mM. When required, an aliquot of this stock solution was freeze-dried and dissolved in DMSO to 200 times the required final assay concentration (e.g. 2 mM for a final assay concentration of 10 μM). A 20 mM stock solution of each test compound was prepared in DMSO, and aliquots of these solutions were used to prepare further stock solutions of each test compound in DMSO, ranging in concentration from 3 μM up to 10 mM. These stock solutions were prepared for use as and when required and stored at −20° C. (maximum of 3 freeze-thaw cycles). The 20 mM parent stock solutions were stored frozen at −20° C. The daughter plate is sealed with silver seal and incubated at 37° C. for 24 and 48 hours for the Thioflavin T assay (LeVine and Scholten 1999). The activity of compounds in inhibiting 10 μM Aβ(1-42) aggregation was assessed by using a thioflavin-T fluorimetric assay. At each timepoint, a 50 or 100 μl aliquot is taken from each well of the daughter plate and dispensed into a black 96 well plate. Equal volume (50 or 100 μl) Thioflavin T [40 μM] (in Glycine buffer [50 mM] —NaOH pH 8.5) is added to each well. The plate was shaken and fluorescence was recorded using the top reader setting (10×1 msec), using excitation and emission filters of 440 (±15) and 485 (±10) nm, respectively. Fluorescence readings from equivalent experiments were averaged and % amyloid formation was determined as follows: [formula] Activity of compounds in inhibiting 10 μM Aβ(1-42) aggregation using thioflavin-T fluorimetric assay

T1 sequence (P05067 672-713): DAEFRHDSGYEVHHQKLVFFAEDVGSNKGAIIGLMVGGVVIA

Row | Compound | IC50 (SH SY5Y cells; Homo sapiens, SH-SY5Y) | IC50 (Aβ(1-42)) | IC50 (SH SY5Y cells)
1 | Oc1cccc(Nc2cnc(Nc3cccc(O)c3)nc2)c1 [Example 2, 2,5-Bis-(3-hydroxyphenylamino)pyrimidine] | 14 µM | 32 µM | –
2 | Oc1cccc(Nc2cnc(Nc3cccc(C(F)(F)F)c3)nc2)c1 [Example 8, 2-(3-Trifluoromethylphenylamino)-5-(3-hydroxyphenylamino)-pyrimidine] | – | 5 µM | –
3 | Oc1cccc(Nc2ccc(Nc3cccc(O)c3)nn2)c1 [RS-0406, reference compound] | – | – | 40 µM
4 | COc1cccc(Nc2cnc(Nc3ccc(Cl)c(Cl)c3)nc2)c1 [Example 10, 2-(3,4-Dichlorophenylamino)-5-(3-methoxyphenylamino)-pyrimidine] | – | 8.5 µM | –
5 | CN(c1ccccc1)c1cnc(Nc2cccc(O)c2)nc1 [Example 11, 2-(3-Hydroxyphenylamino)-5-[phenyl(methyl)amino]pyrimidine] | 30 µM | 22 µM | –
6 | Oc1cccc(Nc2ncc(Nc3cccc(C(F)(F)F)c3)cn2)c1 [Example 4, 2-(3-Hydroxyphenylamino)-5-[3-(trifluoromethyl)phenylamino]-pyrimidine] | – | 13 µM | –
